Test results reported in US8119805B2, “Substituted disulfonamide compounds” (Gruenenthal GmbH, priority 2008, dated 2012).
Where a name gives a salt, the structure may show the parent alone.

Legend:
[1] = target: T1, B1R receptor of the rat (rB1R) (Rattus norvegicus, UniProt P97583); assay: Functional investigation on the bradykinin 1 receptor (B1R), FLIPR Ca2+ assay, rB1R cells; assay type: cell-based; conditions: test substance 10 μM; CHO K1 cells transfected with rat B1R gene; Fluo-4 Ca2+ signal; agonist Des-Arg9-bradykinin at EC80; % of maximum achievable inhibition; read-out: B1R antagonism, rat [10 μM] % inhibition
T1 construct: expressed in transfected cells; host or cells: CHO K1 cells
T1 sequence (P97583 1-337): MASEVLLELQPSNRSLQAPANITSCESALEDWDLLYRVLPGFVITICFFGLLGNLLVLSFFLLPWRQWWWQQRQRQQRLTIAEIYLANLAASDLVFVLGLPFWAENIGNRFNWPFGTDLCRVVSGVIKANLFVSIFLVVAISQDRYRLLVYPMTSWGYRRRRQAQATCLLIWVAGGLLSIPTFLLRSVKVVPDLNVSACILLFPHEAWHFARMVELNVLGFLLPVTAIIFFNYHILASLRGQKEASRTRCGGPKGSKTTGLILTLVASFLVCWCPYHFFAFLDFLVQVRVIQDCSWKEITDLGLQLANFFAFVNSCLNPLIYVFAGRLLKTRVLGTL
Procedure: (§1) The agonistic or antagonistic action of substances on the bradykinin 1 receptor (B1R) of the human and rat species can be quantified with ectopically expressing cell lines (CHO K1 cells) and with the aid of a Ca^2+-sensitive dyestuff (Fluo-4) in a fluorescent imaging plate reader (FLIPR). The value in % activation is based on the Ca^2+ signal after addition of Lys-Des-[…]-bradykinin (0.5 nM) or Des-[…]-bradykinin (100 nM). Antagonists lead to a suppression of the Ca^2+inflow after addition of the agonist. % inhibition compared with the maximum achievable inhibition is stated. The agonistic or antagonistic action of substances on the bradykinin 1 receptor (B1R) of the human and rat species can be determined with the following assay. In accordance with this assay, the Ca^2+ inflow through the channel is quantified with the aid of a Ca^2+-sensitive dyestuff (type Fluo-4, Molecular Probes Europe BV, Leiden, Holland) in a fluorescent imaging plate reader (FLIPR, Molecular Devices, Sunnyvale, USA). Chinese hamster ovary cells (CHO K1 cells) transfected stably with the human B1R gene (hB1R cells) or the B1R gene of the rat (rB1R cells) are used. For functional studies, these cells are plated out on black 96-well plates with a clear base (BD Biosciences, Heidelberg, Germany or Greiner, Frickenhausen, Germany) in a density of 20,000-35,000 cells/well. The cells are left overnight at 37° C. and 5% CO2 in culture medium (hB1R cells: Nutrient Mixture Ham's F12, Gibco Invitrogen GmbH, Karlsruhe, Germany or DMEM, Sigma-Aldrich, Taufkirchen, Germany; rB1R cells: D-MEM/F12, Gibco Invitrogen GmbH, Karlsruhe, Germany) with 10 vol. % FBS (foetal bovine serum, Gibco Invitrogen GmbH, Karlsruhe, Germany or PAN Biotech GmbH, Aidenbach, Germany). On the following day, the cells are loaded for 60 min at 37° C. with 2.13 μM Fluo-4 (Molecular Probes Europe BV, Leiden Holland) in HBSS buffer (Hank's buffered saline solution, Gibco Invitrogen GmbH, Karlsruhe, Germany) with 2.5 mM probenecid (Sigma-Aldrich, Taufkirchen, Germany) and 10 mM HEPES (Sigma-Aldrich, Taufkirchen, Germany). The plates are then washed 2× with HBSS buffer, and HBSS buffer which additionally contains 0.1% BSA (bovine serum albumin; Sigma-Aldrich, Taufkirchen, Germany), 5.6 mM glucose and 0.05% gelatine (Merck KGaA, Darmstadt, Germany) is added. After a further incubation of 20 minutes at room temperature, the plates are inserted into the FLIPR for the Ca^2+ measurement. Alternatively, the plates are washed with buffer A (15 mM HEPES, 80 mM NaCl, 5 mM KCl, 1.2 mM CaCl2, 0.7 mM MgSO4, 2 g/l glucose, 2.5 mM probenecid), buffer A is added and the plates are loaded with 2.5 μM Fluo-4 and 0.025% Pluronic F127 (Sigma-Aldrich, Taufkirchen, Germany). Thereafter, the cells are washed 2× with buffer A and incubated for 30 minutes at room temperature with buffer A, which additionally contains 0.05% BSA and 0.05% gelatine, and thereafter inserted into the FLIPR for the Ca^2+ measurement. The Ca^2+-dependent fluorescence is measured here before and after addition of substances (λex=488 nm, λem=540 nm). Quantification is by measurement of the highest fluorescence intensity (FC, fluorescence counts) over time. The FLIPR protocol consists of 2 additions of substance. Test substances (10 μM) are first pipetted on to the cells and the Ca^2+ inflow is compared with the control (hB1R: Lys-Des-[…]-bradykinin>=50 nM; rB1R: Des-[…]-bradykinin 10 μM). This gives the result in % activation based on the Ca^2+ signal after addition of Lys-Des-[…]-bradykinin (>=50 nM) or Des-[…]-bradykinin (10 μM). After incubation for 10-20 minutes, Lys-Des-[…]-bradykinin (hB1R) or Des-[…]-bradykinin (rB1R) at the EC80 concentration is applied and the inflow of Ca^2+ is likewise determined. Antagonists lead to a suppression of the Ca^2+ inflow. The percent inhibition compared to the maximum achievable inhibition is calculated. In order to determine the IC50 value, the substances are added in various concentrations. […]

[2] = target: T2, human B1R receptor (hB1R) (Homo sapiens, UniProt P46663); assay: Functional investigation on the bradykinin 1 receptor (B1R), FLIPR Ca2+ assay, hB1R cells; assay type: cell-based; conditions: test substance 10 μM; CHO K1 cells transfected with human B1R gene; Fluo-4 Ca2+ signal; agonist Lys-Des-Arg9-bradykinin at EC80; % of maximum achievable inhibition; read-out: B1R antagonism, human [10 μM] % inhibition
T2 construct: expressed in transfected cells; host or cells: CHO K1 cells
T2 sequence (P46663 1-353): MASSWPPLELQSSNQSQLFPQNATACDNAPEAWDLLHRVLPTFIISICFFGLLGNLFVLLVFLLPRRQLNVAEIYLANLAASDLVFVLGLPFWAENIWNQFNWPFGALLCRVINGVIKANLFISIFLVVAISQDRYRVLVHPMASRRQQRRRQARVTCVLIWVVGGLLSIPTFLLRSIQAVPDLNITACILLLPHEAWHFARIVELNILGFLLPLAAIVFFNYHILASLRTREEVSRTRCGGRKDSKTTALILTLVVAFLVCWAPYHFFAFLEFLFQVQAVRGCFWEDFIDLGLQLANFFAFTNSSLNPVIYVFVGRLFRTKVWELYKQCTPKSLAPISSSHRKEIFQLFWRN
Procedure: as §1

Cc1cccc(Cl)c1S(=O)(=O)N1CCC[C@H]1CCCS(=O)(=O)N1CCC2(CCN(c3ccncc3)C2)C1 (stereo partly drawn) [Example 83, 2-(3-((S)-1-(2-Chloro-6-methylphenylsulfonyl)pyrrolidin-2-yl)propylsulfonyl)-7-(pyridin-4-yl)-2,7-diazaspiro[4.4]nonane]
inhibition at 10 µM [1]: 104% | inhibition at 10 µM [2]: 99%

O=S(=O)(CCC[C@@H]1CCCN1S(=O)(=O)c1ccccc1C(F)(F)F)N1CCC2(CCN(c3ccncc3)CC2)CC1 [Example 68, 3-(Pyridin-4-yl)-9-(3-((S)-1-(2-(trifluoromethyl)phenylsulfonyl)pyrrolidin-2-yl)propylsulfonyl)-3,9-diazaspiro[5.5]undecane hydrochloride]
inhibition at 10 µM [1]: 96% | inhibition at 10 µM [2]: 100%

Cc1ccc(S(=O)(=O)N2CCC[C@H]2CCCS(=O)(=O)N2CCC3(CCN(c4ccncc4)CC3)CC2)c2ccccc12 [Example 75, 3-(3-((S)-1-(4-Methylnaphthalen-1-ylsulfonyl)pyrrolidin-2-yl)propylsulfonyl)-9-(pyridin-4-yl)-3,9-diazaspiro[5.5]undecane]
inhibition at 10 µM [1]: 100% | inhibition at 10 µM [2]: 96%

Cc1cc(C)c(S(=O)(=O)N2CCCC2CCCCS(=O)(=O)N2CCN(C3CCN(C)CC3)CC2)c(C)c1 (centres unmarked) [Example 42, 1-(4-(1-(Mesitylsulfonyl)pyrrolidin-2-yl)butylsulfonyl)-4-(1-methylpiperidin-4-yl)piperazine dihydrochloride]
inhibition at 10 µM [1]: 26% | inhibition at 10 µM [2]: 50%

O=S(=O)(CCC1CCN(S(=O)(=O)c2cccc(Cl)c2Cl)C1)N1CCN(c2ccncc2)CC1 (centres unmarked) [Example 21, 1-(2-(1-(2,3-Dichlorophenylsulfonyl)pyrrolidin-3-yl)ethylsulfonyl)-4-(pyridin-4-yl)piperazine hydrochloride]
inhibition at 10 µM [1]: 73% | inhibition at 10 µM [2]: 97%

O=S(=O)(CCC[C@@H]1CCCN1S(=O)(=O)c1ccccc1C(F)(F)F)N1[C@@H]2CC[C@H]1C[C@H](Oc1ccncc1)C2 [Example 56, (1R,3R,5S)-3-(Pyridin-4-yloxy)-8-(3-((S)-1-(2-(trifluoromethyl)phenylsulfonyl)pyrrolidin-2-yl)propylsulfonyl)-8-azabicyclo[3.2.1]octane]
inhibition at 10 µM [1]: 99% | inhibition at 10 µM [2]: 95%

Cc1cccc(Cl)c1S(=O)(=O)N1CCC[C@H]1CCCS(=O)(=O)N1[C@@H]2CC[C@H]1C[C@H](Oc1ccncc1)C2 [Example 55, (1R,3R,5S)-8-(3-((S)-1-(2-Chloro-6-methylphenylsulfonyl)pyrrolidin-2-yl)propylsulfonyl)-3-(pyridin-4-yloxy)-8-azabicyclo[3.2.1]octane]
inhibition at 10 µM [1]: 98% | inhibition at 10 µM [2]: 98%

Cc1cc(S(=O)(=O)N2CCCCC2CCS(=O)(=O)N2CCN(C3CCN(C)CC3)CC2)c(C)cc1Cl (centres unmarked) [Example 38, 1-(2-(1-(4-Chloro-2,5-dimethylphenylsulfonyl)piperidin-2-yl)ethylsulfonyl)-4-(1-methylpiperidin-4-yl)piperazine dihydrochloride]
inhibition at 10 µM [1]: 47% | inhibition at 10 µM [2]: 101%

COc1cc(C)c(S(=O)(=O)N2CCCC(CCCS(=O)(=O)N3CCC(CCN4CCCC4)CC3)C2)c(C)c1C (centres unmarked) [Example 10, 1-(4-Methoxy-2,3,6-trimethylphenylsulfonyl)-3-(3-(4-(2-(pyrrolidin-1-yl)ethyl)piperidin-1-ylsulfonyl)propyl)piperidine hydrochloride]
inhibition at 10 µM [1]: 10% | inhibition at 10 µM [2]: 63%

O=S(=O)(CCC1CCN(S(=O)(=O)c2cc(Cl)c(Cl)cc2Cl)C1)N1CCC(CCN2CCCC2)CC1 (centres unmarked) [Example 18, 4-(2-(Pyrrolidin-1-yl)ethyl)-1-(2-(1-(2,4,5-trichlorophenylsulfonyl)pyrrolidin-3-yl)ethylsulfonyl)piperidine hydrochloride]
inhibition at 10 µM [1]: 11% | inhibition at 10 µM [2]: 65%

Cc1cccc(Cl)c1S(=O)(=O)N1CCCCC1CCCS(=O)(=O)N1CCC2(CCN(c3ccncc3)CC2)CC1 (centres unmarked) [Example 86, 3-(3-(1-(2-Chloro-6-methylphenylsulfonyl)piperidin-2-yl)propylsulfonyl)-9-(pyridin-4-yl)-3,9-diazaspiro[5.5]undecane]
inhibition at 10 µM [1]: 101% | inhibition at 10 µM [2]: 99%

COc1cc(C)c(S(=O)(=O)N2CC(CCS(=O)(=O)N3CCC(CCN4CCCC4)CC3)CO2)c(C)c1C (centres unmarked) [Example 15]
inhibition at 10 µM [1]: 18% | inhibition at 10 µM [2]: 97%

COc1cc(C)c(S(=O)(=O)N2CCC(CCS(=O)(=O)N3CCC(CCN4CCCC4)CC3)C2)c(C)c1C (centres unmarked) [Example 16, 1-(2-(1-(4-Methoxy-2,3,6-trimethylphenylsulfonyl)pyrrolidin-3-yl)ethylsulfonyl)-4-(2-(pyrrolidin-1-yl)ethyl)piperidine hydrochloride]
inhibition at 10 µM [1]: 13% | inhibition at 10 µM [2]: 97%

CN1CCC(N2CCN(S(=O)(=O)CCC[C@@H]3CCCN3S(=O)(=O)c3cccc4ccccc34)CC2)CC1 [Example 30, (S)-1-(1-Methylpiperidin-4-yl)-4-(3-(1-(naphthalen-1-ylsulfonyl)pyrrolidin-2-yl)propylsulfonyl)piperazine]
inhibition at 10 µM [1]: 48% | inhibition at 10 µM [2]: 56%

COc1cc(C)c(S(=O)(=O)N2CCC(CCS(=O)(=O)N3CCC(CCN4CCCC4)CC3)C2)c(C)c1 (centres unmarked) [Example 25, 1-(2-(1-(4-Methoxy-2,6-dimethylphenylsulfonyl)pyrrolidin-3-yl)ethylsulfonyl)-4-(2-(pyrrolidin-1-yl)ethyl)piperidine hydrochloride]
inhibition at 10 µM [1]: 90% | inhibition at 10 µM [2]: 103%

Cc1cccc(Cl)c1S(=O)(=O)N1CCC[C@H]1CCCS(=O)(=O)N1CCC2(CCC(Oc3ccncc3)CC2)CC1 [Example 62, 3-(3-((S)-1-(2-Chloro-6-methylphenylsulfonyl)pyrrolidin-2-yl)propylsulfonyl)-9-(pyridin-4-yloxy)-3-azaspiro[5.5]undecane]
inhibition at 10 µM [1]: 104% | inhibition at 10 µM [2]: 84%
